For one assay, the system named is S. aureus 1333 (MSSA). Put plainly: MIC/MBC by broth microdilution reference method. The format is cell-based, Staphylococcus aureus. The settings on record: Staphylococcus aureus, MSSA.
The next assay concerns S. aureus 1334 (MSSA). Kind of assay: MIC/MBC by broth microdilution reference method. The class given is cell-based, Staphylococcus aureus. The conditions noted are these: Staphylococcus aureus, MSSA. Background: Dilution methods test growth across graded concentrations, often in twofold steps.
The test system of a further assay is S. aureus 1814 (MRSA). Kind of assay: MIC/MBC by broth microdilution reference method. The class given is cell-based, Staphylococcus aureus. The conditions noted are these: Staphylococcus aureus, MRSA.
For another assay, the system named is S. aureus 1815 (MRSA). Put plainly: MIC/MBC by broth microdilution reference method. The format is cell-based, Staphylococcus aureus. The settings on record: Staphylococcus aureus, MRSA.
A further assay deals with S. aureus 1816 (MSSA). Kind of assay: MIC/MBC by broth microdilution reference method. The class given is cell-based, Staphylococcus aureus. The settings on record: Staphylococcus aureus, MSSA.
In the next assay the test system is S. aureus 1817 (MSSA). Kind of assay: MIC/MBC by broth microdilution reference method. The format is cell-based, Staphylococcus aureus. The settings on record: Staphylococcus aureus, MSSA.
A further assay relates to S. aureus 1818 (MSSA). Put plainly: MIC/MBC by broth microdilution reference method. The class given is cell-based, Staphylococcus aureus. The conditions noted are these: Staphylococcus aureus, MSSA.
Assay [1] concerns S. aureus ATCC 29213 (MSSA reference strain). Put plainly: MIC/MBC by broth microdilution reference method. The class given is cell-based, Staphylococcus aureus. The conditions noted are these: Staphylococcus aureus.
The next assay deals with all S. aureus isolates. Kind of assay: MIC/MBC by broth microdilution, summary over all isolates. The format is cell-based, Staphylococcus aureus. The settings on record: Staphylococcus aureus, read-out: MICs for all S. aureus isolates.
A further assay relates to MSSA 1334. Kind of assay: Mouse model of septic arthritis. The format is in vivo. The conditions noted are these: MSSA 1334-infected mice, Pep16 10 mg/kg or vancomycin 100 mg/kg subcutaneous daily. The protocol:
Female Swiss mice, obtained from Janvier Labs and aged between 11 and 13 weeks with an approximate weight of 34 g, were used. The experiments were conducted in the ARCHE animal facility (Biosit) in Rennes. Mice were inoculated IV with 200 μL of a 0.9% NaCl solution containing approximately 10^8 cfu of the 1334 strain (MSSA). […] These treatments were administered daily for a duration of 7 days. […] The mice were monitored on a daily basis, and on the seventh day, they were humanely euthanized using CO2. Subsequently, knee joints, spleen and kidneys were excised, weighed and homogenized in 0.9% NaCl using a Polytron PT 3100D homogenizer (Kinematica, Switzerland). Bacterial loads were determined by plating serial dilutions onto BHI agar and expressed as log10 cfu/g.
Figure 3. Bacterial loads (in log cfu/g) at Day 7 in knee joints, kidneys and spleen from mice infected by MSSA 1334. Mice were initially inoculated with approximately 1 × 10^8 cfu of MSSA 1334. […] Treatments were administered via subcutaneous injection and continued daily until the conclusion of the experiment. Individual dots on the graph represent cfu counts for single animals (enumerated at Day 7), with black horizontal lines indicating median values. The experiments were performed with five mice per condition, in triplicate for Pep16 and saline solution, and in duplicate for vancomycin. […]

A further assay relates to S. aureus in osteoblasts. Also on record: method as in PMID 34423360. The conditions noted are these: at 100x its MIC; cited from earlier work.
In the next assay the test system is S. aureus. Also on record: method as in ref 11 (Chauvelot et al.). The conditions noted are these: ref 11 (Chauvelot et al.); cited from earlier work.

Values after ≈ are worked out from the molar mass of the structure shown.

As to `CN[C@H](CC(C)C)C(=O)N[C@H]1C(=O)N[C@@H](CC(N)=O)C(=O)N[C@H]2C(=O)N[C@H]3C(=O)N[C@H](C(=O)N[C@H](C(=O)O)c4cc(O)cc(O)c4-c4cc3ccc4O)[C@H](O)c3ccc(c(Cl)c3)Oc3cc2cc(c3O[C@@H]2O[C@H](CO)[C@@H](O)[C@H](O)[C@H]2O[C@H]2C[C@](C)(N)[C@H](O)[C@H](C)O2)Oc2ccc(cc2Cl)[C@H]1O` [VAN, vancomycin], the MBC in the assay on S. aureus 1333 (MSSA), in the assay with S. aureus 1334 (MSSA), against S. aureus 1814 (MRSA), against S. aureus 1815 (MRSA), in the assay with S. aureus 1816 (MSSA) and in the assay with S. aureus 1817 (MSSA) was 0.5 µg/mL (≈ 0.345 µM) each time. Further, the MBC (against S. aureus 1818 (MSSA); in assay [1]) was 0.5 µg/mL (≈ 0.345 µM) in each case. For the same compound, the MIC against S. aureus 1333 (MSSA), against S. aureus 1334 (MSSA), with S. aureus 1814 (MRSA), in the assay on S. aureus 1815 (MRSA), with S. aureus 1816 (MSSA) and against S. aureus 1817 (MSSA) was 0.5 µg/mL (≈ 0.345 µM) in each case. Also, the MIC (in the assay with S. aureus 1818 (MSSA); in assay [1]; with all S. aureus isolates) was 0.5 µg/mL (≈ 0.345 µM) each time. In the assay with MSSA 1334, the “survival of infected mice at Day 7” value is “had survived at Day 7”.
Turning to `CN[C@H]1C(=O)N[C@@H]2Cc3ccc(cc3)Oc3cc4cc(c3O[C@@H]3O[C@H](C(=O)O)[C@@H](O)[C@H](O)[C@H]3NC(=O)CCCCCCCCC(C)C)Oc3ccc(cc3Cl)[C@@H](O)[C@@H]3NC(=O)[C@H](NC(=O)[C@@H]4NC(=O)[C@@H](NC2=O)c2cc(cc(O)c2Cl)Oc2cc1ccc2O)c1ccc(O)c(c1)-c1c(O[C@H]2O[C@H](CO)[C@@H](O)[C@H](O)[C@@H]2O)cc(O)cc1[C@@H](C(=O)NCCCN(C)C)NC3=O` [dalbavancin], in the assay with S. aureus in osteoblasts, the “peak of reduction of S. aureus in osteoblasts” value was 51.6%. The MIC with S. aureus is given as 0.125 mg/L (≈ 0.0688 µM).

One may read the MBC as the lowest tested concentration that kills the bacteria rather than only halting them. A high value points to weaker bactericidal potency.
